Experimental data reported in patent publication US6355799B1, “Substituted benzene compounds, process for their preparation, and herbicidal and defoliant compositions containing them” (ISK Americas Incorporated, priority 1997, dated 2002).

What was measured:
Assay type in all cases: in vivo
[1] = system: redroot pigweed (Amaranthus retroflexus, AMARE); test: Pre-emerge test, greenhouse herbicide activity screening; conditions: pre-emerge, phytotoxicity rating 0-100 at 14 days after application
In short: (§1)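 Compounds in acetone were track-sprayed at 187 l/ha, 15–1000 g ai/ha, onto sandy loam pots. Pre-emerge seeds were sown one day before spraying, with surface watering afterwards. Post-emerge plants were at the 2–3 leaf stage and sprayed with 0.25% v/v non-ionic surfactant. Injury was rated 0–100 at 14 days.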

[2] = system: barnyardgrass (Echinochloa crus-galli, ECHCG); test: as above; conditions: pre-emerge, phytotoxicity rating 0-100 at 14 days after application
In short: (§2)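 Rating: 0–100 visual injury, 14 DAA. Application: acetone, 187 l/ha, 15–1000 g ai/ha, flat-fan track sprayer with nozzle 40–45 cm above soil or canopy. Post-emerge runs used 0.25% v/v surfactant on 2–3 leaf plants.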

[3] = system: green foxtail (Setaria viridis, SETVI); test: as above; conditions: pre-emerge, phytotoxicity rating 0-100 at 14 days after application
In short: as §2

[4] = system: ivyleaf morningglory (Ipomoea hederacea, IPOHE); test: as above; conditions: pre-emerge, phytotoxicity rating 0-100 at 14 days after application
In short: as §2

[5] = system: johnsongrass (Sorghum halepense, SORHA); test: as above; conditions: pre-emerge, phytotoxicity rating 0-100 at 14 days after application
In short: as §2

[6] = system: lambsquarters (Chenopodium album, CHEAL); test: as above; conditions: pre-emerge, phytotoxicity rating 0-100 at 14 days after application
In short: as §2

[7] = system: large crabgrass (Digitaria sanguinalis, DIGSA); test: as above; conditions: pre-emerge, phytotoxicity rating 0-100 at 14 days after application
In short: as §2

[8] = system: sicklepod (Cassia obtusifolia, CASOB); test: as above; conditions: pre-emerge, phytotoxicity rating 0-100 at 14 days after application
In short: as §2

[9] = system: velvetleaf (Abutilon theophrasti, ABUTH); test: as above; conditions: pre-emerge, phytotoxicity rating 0-100 at 14 days after application
In short: as §2

[10] = system: field corn (Zea mays L., var. Dekalb 535, CORN); test: Pre-emerge test, crop safety; conditions: crop damage, pre-emerge, phytotoxicity rating 0-100 at 14 days after application
In short: as §1

[11] = system: upland rice (Oryza sp., var. Tebonnet, RICE); test: Pre-emerge test, crop safety; conditions: crop damage, pre-emerge, phytotoxicity rating 0-100 at 14 days after application
In short: as §1

[12] = system: barnyardgrass (Echinochloa crus-galli, ECHCG); test: Post-emerge test, greenhouse herbicide activity screening; conditions: post-emerge, phytotoxicity rating 0-100 at 14 days after application
In short: (§3)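 Each test used a mechanized track sprayer delivering 187 l/ha of acetone solution at 15–1000 g ai/ha. Post-emerge foliage at 2–3 leaves was treated with added 0.25% v/v non-ionic surfactant and bottom-watered only. Injury was assessed on day 14, where 100 means total kill.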

[13] = system: green foxtail (Setaria viridis, SETVI); test: as above; conditions: post-emerge, phytotoxicity rating 0-100 at 14 days after application
In short: as §3

[14] = system: ivyleaf morningglory (Ipomoea hederacea, IPOHE); test: as above; conditions: post-emerge, phytotoxicity rating 0-100 at 14 days after application
In short: as §3

[15] = system: johnsongrass (Sorghum halepense, SORHA); test: as above; conditions: post-emerge, phytotoxicity rating 0-100 at 14 days after application
In short: as §3

[16] = system: lambsquarters (Chenopodium album, CHEAL); test: as above; conditions: post-emerge, phytotoxicity rating 0-100 at 14 days after application
In short: as §3

[17] = system: large crabgrass (Digitaria sanguinalis, DIGSA); test: as above; conditions: post-emerge, phytotoxicity rating 0-100 at 14 days after application
In short: as §3

[18] = system: redroot pigweed (Amaranthus retroflexus, AMARE); test: as above; conditions: post-emerge, phytotoxicity rating 0-100 at 14 days after application
In short: as §3

[19] = system: sicklepod (Cassia obtusifolia, CASOB); test: as above; conditions: post-emerge, phytotoxicity rating 0-100 at 14 days after application
In short: as §3

[20] = system: velvetleaf (Abutilon theophrasti, ABUTH); test: as above; conditions: post-emerge, phytotoxicity rating 0-100 at 14 days after application
In short: as §3

[21] = system: field corn (Zea mays L., var. Dekalb 535, CORN); test: Post-emerge test, crop safety; conditions: post-emerge, crop damage rating 0-100 at 14 days after application
In short: (§4)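 Plants grown in 10 cm pots of sandy loam mix received acetone-dissolved compounds through a moving flat-fan nozzle. Doses ranged from 15 to 1000 g ai/ha. Pre-emerge pots were seeded one day earlier, post-emerge pots 8–21 days earlier. Fourteen days on, each pot was graded 0–100 for damage.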

[22] = system: upland rice (Oryza sp., var. Tebonnet, RICE); test: Post-emerge test, crop safety; conditions: post-emerge, crop damage rating 0-100 at 14 days after application
In short: as §4

Structure (SMILES): CCC(=O)Nc1c(Cl)cc(Cl)c(-n2nc(C)n(C(F)F)c2=O)c1N [Compound 6-19]
- Pre-emerge Herbicidal Activity AMARE ([1]; rate 63 g ai/ha): 30
- Pre-emerge Herbicidal Activity AMARE ([1]; rate 250 g ai/ha): 70
- Pre-emerge Herbicidal Activity ECHCG ([2]; rate 63 g ai/ha): 0
- Pre-emerge Herbicidal Activity ECHCG ([2]; rate 250 g ai/ha): 0
- Pre-emerge Herbicidal Activity SETVI ([3]; rate 63 g ai/ha): 0
- Pre-emerge Herbicidal Activity SETVI ([3]; rate 250 g ai/ha): 10
- Pre-emerge Herbicidal Activity IPOHE ([4]; rate 63 g ai/ha): 0
- Pre-emerge Herbicidal Activity IPOHE ([4]; rate 250 g ai/ha): 0
- Pre-emerge Herbicidal Activity SORHA ([5]; rate 63 g ai/ha): 0
- Pre-emerge Herbicidal Activity SORHA ([5]; rate 250 g ai/ha): 0
- Pre-emerge Herbicidal Activity CHEAL ([6]; rate 63 g ai/ha): 70
- Pre-emerge Herbicidal Activity CHEAL ([6]; rate 250 g ai/ha): 90
- Pre-emerge Herbicidal Activity DIGSA ([7]; rate 63 g ai/ha): 0
- Pre-emerge Herbicidal Activity DIGSA ([7]; rate 250 g ai/ha): 0
- Pre-emerge Herbicidal Activity CASOB ([8]; rate 63 g ai/ha): 0
- Pre-emerge Herbicidal Activity CASOB ([8]; rate 250 g ai/ha): 0
- Pre-emerge Herbicidal Activity ABUTH ([9]; rate 63 g ai/ha): 20
- Pre-emerge Herbicidal Activity ABUTH ([9]; rate 250 g ai/ha): 50
- Pre-emerge Herbicidal Activity CORN ([10]; rate 63 g ai/ha): 0
- Pre-emerge Herbicidal Activity CORN ([10]; rate 250 g ai/ha): 0
- Pre-emerge Herbicidal Activity RICE ([11]; rate 63 g ai/ha): 0
- Pre-emerge Herbicidal Activity RICE ([11]; rate 250 g ai/ha): 0
- Post-emerge Herbicidal Activity ECHCG ([12]; 63 g ai/ha): 0
- Post-emerge Herbicidal Activity ECHCG ([12]; 250 g ai/ha): 0
- Post-emerge Herbicidal Activity SETVI ([13]; 63 g ai/ha): 0
- Post-emerge Herbicidal Activity SETVI ([13]; 250 g ai/ha): 0
- Post-emerge Herbicidal Activity IPOHE ([14]; 63 g ai/ha): 0
- Post-emerge Herbicidal Activity IPOHE ([14]; 250 g ai/ha): 30
- Post-emerge Herbicidal Activity SORHA ([15]; 63 g ai/ha): 0
- Post-emerge Herbicidal Activity SORHA ([15]; 250 g ai/ha): 0
- Post-emerge Herbicidal Activity CHEAL ([16]; 63 g ai/ha): 0
- Post-emerge Herbicidal Activity CHEAL ([16]; 250 g ai/ha): 60
- Post-emerge Herbicidal Activity DIGSA ([17]; 63 g ai/ha): 0
- Post-emerge Herbicidal Activity DIGSA ([17]; 250 g ai/ha): 0
- Post-emerge Herbicidal Activity AMARE ([18]; 63 g ai/ha): 0
- Post-emerge Herbicidal Activity AMARE ([18]; 250 g ai/ha): 30
- Post-emerge Herbicidal Activity CASOB ([19]; 63 g ai/ha): 0
- Post-emerge Herbicidal Activity CASOB ([19]; 250 g ai/ha): 0
- Post-emerge Herbicidal Activity ABUTH ([20]; 63 g ai/ha): 0
- Post-emerge Herbicidal Activity ABUTH ([20]; 250 g ai/ha): 50
- Post-emerge Herbicidal Activity CORN ([21]; 63 g ai/ha): 0
- Post-emerge Herbicidal Activity CORN ([21]; 250 g ai/ha): 0
- Post-emerge Herbicidal Activity RICE ([22]; 63 g ai/ha): 0
- Post-emerge Herbicidal Activity RICE ([22]; 250 g ai/ha): 0
